In patent US20150299125A1, “PRODRUG BIPYRIDYLAMINOPYRIDINES AS SYK INHIBITORS” (MERCK SHARP & DOHME CORP., priority 2012, published 2015):
Values after ≈ are worked out from the molar mass of the structure shown.

What was measured:
[1] = Conversion of prodrug to parent in intestine homogenate; format: in vitro ADME; details: prodrug 1 μM, intestine S9 1 mg protein/mL, 37° C., pH 7.4, 2 h
Experimental: Conversion of Prodrug to Parent in Intestine Homogenate:
(§1) The likely stability of prodrugs in the intestine can be estimated by incubating a prodrug with intestine homogenate. Incubations of prodrugs (1 μM) with intestine S9 (1 mg protein/mL) were carried out at 37° C. in a phosphate buffer, pH 7.4. Control incubations contained BSA (1.1 mg/mL) instead of intestine S9 microsomes. Aliquots were removed at 0, 5, 15, 30, 60 and 120 min, treated with 4 volumes of acetonitrile containing 2% formic acid and an internal standard, and centrifuged. The supernatants were analyzed by LC-MS/MS for prodrug disappearance and appearance of active drug. The half-life of the prodrug was calculated from the % prodrug remaining at different time points calculated from on the peak area ratio relative to t=0. The amount of active drug generated at the different time points was determined using a standard curve.

[2] = Conversion of prodrug to parent in liver homogenate; format: in vitro ADME; details: prodrug 1 μM, liver S9 1 mg protein/mL, 37° C., pH 7.4, 2 h
Experimental: Conversion of Prodrug to Parent in Liver Homogenate:
as §1, with “liver” for “intestine”

[3] = molecular target: T1, recombinant human GST-Syk (Homo sapiens, UniProt P43405); test: Homogeneous Time-Resolved Fluorescence (HTRF) assay for the recombinant human Syk enzyme; format: biochemical; details: recombinant human GST-Syk 5 pM, ATP 25 μM, read-out: IC50
T1 construct: purchased Carna Biosciences 08-176
How it was run: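 Recombinant GST-hSyk phosphorylates a biotinylated peptide for 45 min at room temperature. Quenched with EDTA buffer containing 2 nM Eu-anti-phosphotyrosine antibody and 70 nM SA-APC; HTRF read after 30 min.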

[4] = Solubility in biorelevant fasted state simulated intestinal fluid (FaSSIF); format: physicochemical; details: 25 °C, fassif, kinetic from dmso stock, Solubility
How it was run: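 Compound from 10 mM DMSO stock diluted into FaSSIF (maximum solubility approximately 200 μM), equilibrated, then filtered by centrifugation through a 0.45 μm polypropylene membrane. Filtrate and a 100 μM standard analysed by HPLC/DAD; solubility = (sample peak area/standard peak area) × standard concentration.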

[5] = Conversion of prodrug to parent in in vitro biorelevant gastrointestinal tract media; format: in vitro ADME; details: 37° C.; for Conversion in SGF, time: simulated gastric fluid
Experimental: Conversion of Prodrug to Parent in In Vitro Biorelevant Gastrointestinal Tract Media: The likely stability of prodrugs in the gastrointestinal tract can be estimated by incubating a prodrug in simulated gastric and intestinal fluids; compounds were measured for stability in simulated gastric fluid (SGF), fasted state simulated intestinal fluid (FaSSIF), and fasted state simulated intestinal fluid plus pancreatin (FaSSIF+pancreatin). Prodrug stock solutions were made by diluting 2 mg of compound in 200 μL DMSO. A 10 mg/mL Pancreatin in FaSSIF stock solution was made by dissolving 10 mg Pancreatin in 1 mL FaSSIF. Samples were prepared by diluting 10 μL of compound stock solution into 990 μL of biorelevant media (990 μL SGF, 990 μL FaSSIF, or 940 μL FaSSIF plus 50 μL Pancreatin stock) in a 2 mL HPLC vial and vortexing the mixture for a few seconds. The samples were incubated at 37° C. and aliquots were removed for up to 24 hours and injected directly on an HPLC to determine the conversion of prodrug to active drug. In the case of compound precipitation upon sample preparation, an individual sample was prepared for each desired time point and the entire sample was diluted with a known volume of acetonitrile/water (50/50) to ensure compound dissolution before HPLC analysis.

Prodrug concentration at 2 h [1] [µM] | Prodrug concentration at 2 h [2] [µM] | IC50 [3] [nM] | solubility [4] [µM] | Conversion in FaSSIF + Pancreatin, time ([5]; 3 h) | Conversion in FaSSIF, time ([5]; 5 h) | Conversion in SGF, time ([5]; 5 h) | Conversion in FaSSIF, time ([5]; 24 h) | Conversion in SGF, time ([5]; 3 h) | Conversion in FaSSIF, time ([5]; 3 h) | Conversion in FaSSIF + Pancreatin, time ([5]; 5 h) | SMILES
0.539 | 0 | 20.7 | – | – | – | – | – | – | – | – | COCCN(C)C(=O)OC(C)OC(=O)[C@H]1CC[C@H]([C@@](C)(O)c2ccc(-c3cc(C)cc(Nc4cc(C(F)F)ccn4)n3)cn2)CC1 (mixture of isomers) [Example 4-1, 1-{[(2-methoxyethyl)(methyl)carbamoyl]oxy}ethyl trans-4-[(1R)-1-(6-{[4-(difluoromethyl)pyridin-2-yl]amino}-4-methyl-2,3′-bipyridin-6′-yl)-1-hydroxyethyl]cyclohexanecarboxylate]
0.385 | 0 | 4.2 | 56 (≈ 32.1 µg/mL) | – | – | – | – | – | – | – | Cc1cc(Nc2cc(C(F)F)ccn2)nc(-c2ccc([C@](C)(O)[C@H]3CC[C@H](C(=O)OCC[S@@+](C)[O-])CC3)nc2)c1 (single isomer, unassigned) [Example 7-1a]
– | – | 2.3 | 167 (≈ 96.8 µg/mL) | 100%, 3 h | 0%, 5 h | 0%, 5 h | – | – | – | – | Cc1cc(Nc2cc(C(F)F)ccn2)nc(-c2ccc([C@](C)(O)[C@H]3CC[C@H](C(=O)OCC4CCNCC4)CC3)nc2)c1 [Example 1-21, piperidin-4-ylmethyl trans-4-[(1R)-1-(6-{[4-(difluoromethyl)pyridin-2-yl]amino}-4-methyl-2,3′-bipyridin-6′-yl)-1-hydroxyethyl] cyclohexanecarboxylate]
– | – | 1.8 | 183 (≈ 101 µg/mL) | 100%, 3 h | 0%, 5 h | 0%, 5 h | – | – | – | – | CNCCCOC(=O)[C@H]1CC[C@H]([C@@](C)(O)c2ccc(-c3cc(C)cc(Nc4cc(C(F)F)ccn4)n3)cn2)CC1 [Example 1-22, 3-(methylamino)propyl trans-4-[(1R)-1-(6-{[4-(difluoromethyl)pyridin-2-yl]amino}-4-methyl-2,3′-bipyridin-6′-yl)-1-hydroxyethyl] cyclohexanecarboxylate]
– | – | 1.6 | 131 (≈ 75.9 µg/mL) | 100%, 3 h | 0%, 5 h | 0%, 5 h | – | – | – | – | Cc1cc(Nc2cc(C(F)F)ccn2)nc(-c2ccc([C@](C)(O)[C@H]3CC[C@H](C(=O)O[C@H]4CC[C@H](N)CC4)CC3)nc2)c1 [Example 1-23, trans-4-aminocyclohexyl trans-4-[(1R)-1-(6-{[4-(difluoromethyl)pyridin-2-yl]amino}-4-methyl-2,3′-bipyridin-6′-yl)-1-hydroxyethyl] cyclohexanecarboxylate]
– | – | 5.3 | – | 100%, 3 h | – | 0%, 5 h | 5%, 24 h | – | – | – | Cc1cc(Nc2cc(C(F)F)ccn2)nc(-c2ccc([C@](C)(O)[C@H]3CC[C@H](C(=O)OCOC(=O)OCCOCCOCCOCCO)CC3)nc2)c1 [Example 2-4, 15-hydroxy-3-oxo-2,4,7,10,13-pentaoxapentadec-1-yl trans-4-[(1R)-1-(6-{[4-(difluoromethyl)pyridin-2-yl]amino}-4-methyl-2,3′-bipyridin-6′-yl)-1-hydroxyethyl]cyclo hexanecarboxylate]
– | – | < 0.5 | – | 95%, 3 h | 0%, 5 h | 0%, 5 h | – | – | – | – | CCOCCOC(=O)OCOC(=O)[C@H]1CC[C@H]([C@@](C)(O)c2ccc(-c3cc(C)cc(Nc4cc(C(F)F)ccn4)n3)cn2)CC1 [Example 2-6, {[(2-ethoxyethoxy)carbonyl]oxy}methyl trans-4-[(1R)-1-(6-{[4-(difluoromethyl)pyridin-2-yl]amino}-4-methyl-2,3′-bipyridin-6′-yl)-1-hydroxyethyl]cyclo hexanecarboxylate]
– | – | 78 | 119 (≈ 81.4 µg/mL) | 20%, 3 h | 0%, 5 h | 0%, 5 h | – | – | – | – | Cc1cc(Nc2cc(C(F)F)ccn2)nc(-c2ccc([C@](C)(O)[C@H]3CC[C@H](C(=O)OCOC(=O)OCCCCCCN(C)C)CC3)nc2)c1 [Example 2-7, [({[6-(dimethylamino)hexyl]oxy}carbonyl)oxy]methyl trans-4-[(1R)-1-(6-{[4-(difluoromethyl)pyridin-2-yl]amino}-4-methyl-2,3′-bipyridin-6′-yl)-1-hydroxyethyl]cyclo hexanecarboxylate]
– | – | 27.2 | – | 65%, 3 h | 0%, 5 h | – | – | 2%, 3 h | – | – | Cc1cc(Nc2cc(C(F)F)ccn2)nc(-c2ccc([C@](C)(O)[C@H]3CC[C@H](C(=O)OCOC(=O)OCC4CCOCC4)CC3)nc2)c1 [Example 2-9, {[(tetrahydro-2H-pyran-4-ylmethoxy)carbonyl]oxy}methyl trans-4-[(1R)-1-(6-{[4-(difluoromethyl)pyridin-2-yl]amino}-4-methyl-2,3′-bipyridin-6′-yl)-1-hydroxyethyl]cyclo hexanecarboxylate]
0.371 | 0 | < 0.5 | – | – | – | – | – | – | – | – | CCOCCOCCOC(=O)OC(OC(=O)[C@H]1CC[C@H]([C@@](C)(O)c2ccc(-c3cc(C)cc(Nc4cc(C(F)F)ccn4)n3)cn2)CC1)C(C)C (stereo partly drawn) [Example 2-17, 1-(1-methylethyl)-3-oxo-2,4,7,10-tetraoxadodec-1-yl trans-4-[(1R)-1-(6-{[4-(difluoromethyl)pyridin-2-yl]amino}-4-methyl-2,3′-bipyridin-6′-yl)-1-hydroxyethyl]cyclo hexanecarboxylate]
– | – | 27 | 147 (≈ 91.7 µg/mL) | 100%, 3 h | – | 0%, 5 h | – | – | 100%, 3 h | – | Cc1cc(Nc2cc(C(F)F)ccn2)nc(-c2ccc([C@](C)(O)[C@H]3CC[C@H](C(=O)OCOC(=O)C4CCNCC4)CC3)nc2)c1 [Example 3-1]
0.092 | 0.12 | 7.5 | – | – | – | – | – | – | – | – | Cc1cc(Nc2cc(C(F)F)ccn2)nc(-c2ccc([C@](C)(O)[C@H]3CC[C@H](C(=O)OCOC(=O)OCCCS(C)(=O)=O)CC3)nc2)c1 [Example 7-2, ({[3-(Methylsulfonyl)propoxy]carbonyl}oxy)methyl trans-4-[(1R)-1-(6-{[4-(difluoromethyl)pyridin-2-yl]amino}-4-methyl-2,3′-bipyridin-6′-yl)-1-hydroxyethyl]cyclohexanecarboxylate]
– | – | < 0.5 | – | – | 20%, 5 h | 5%, 5 h | – | – | – | 50%, 5 h | Cc1cc(Nc2cc(C(F)F)ccn2)nc(-c2ccc([C@](C)(O)[C@H]3CC[C@H](C(=O)OCOP(=O)(O)O)CC3)nc2)c1 [Example 10-1, (Phosphonooxy)methyl trans-4-[(1R)-1-(6-{[4-(difluoromethyl)pyridin-2-yl]amino}-4-methyl-2,3′-bipyridin-6′-yl)-1-hydroxyethyl]cyclohexanecarboxylate]
